Results from the supplement of paper PMC10307832.

Tests used:
Experiment in all cases: relative viability (nuclei count vs DMSO), 5 days (fraction); higher = more cells survive
[1] = test system: CAL-12T
Outline: (§1)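 Relative viability equals treated-well nuclei counts divided by vehicle-well nuclei counts. Counts came from 4× images of lung cancer cell lines grown in 1536-well plates for 5 days after pin-tool dosing on the day after seeding. Dosing used one drug alone or a fixed anchor-drug dose plus five library-drug doses (not always all listed) in √10 steps, and values are medians of duplicate plates.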

[2] = test system: ChaGo-K-1
Outline: as §1

[3] = test system: HCC-366
Outline: as §1

[4] = test system: HCC-78
Outline: as §1

[5] = test system: LC-2-ad
Outline: as §1

[6] = test system: LOU-NH91
Outline: as §1

[7] = test system: LU99A
Outline: as §1

[8] = test system: NCI-H1395
Outline: as §1

[9] = test system: NCI-H1651
Outline: as §1

[10] = test system: NCI-H1755
Outline: as §1

[11] = test system: NCI-H1793
Outline: as §1

[12] = test system: NCI-H1944
Outline: as §1

[13] = test system: NCI-H2087
Outline: as §1

[14] = test system: NCI-H2170
Outline: as §1

[15] = test system: NCI-H2228
Outline: as §1

[16] = test system: NCI-H2405
Outline: as §1

[17] = test system: NCI-H3122
Outline: as §1

[18] = test system: NCI-H460
Outline: as §1

[19] = test system: PC-3 [JPC-3]
Outline: as §1

[20] = test system: RERF-LC-KJ
Outline: as §1

[21] = test system: UMC-11
Outline: as §1

Work on `COc1nc(C)cnc1NS(=O)(=O)c1cccnc1-c1ccc(-c2nnco2)cc1` [Zibotentan] + Nc1nc2[nH]cc(CCc3ccc(C(=O)N[C@@H](CCC(=O)O)C(=O)O)cc3)c2c(=O)[nH]1 [Pemetrexed] (partner 0.2 µM) yielded a relative viability ([1]; first compound 0.08 µM) of 1.28, a relative viability ([1]; first compound 0.253 µM) of 1.06 and a relative viability ([1]; first compound 0.8 µM) of 1.23. For the same compound, the relative viability ([1]; first compound 2.53 µM) was 1.16, the relative viability ([2]; first compound 0.08 µM) was 0.261 and the relative viability ([2]; first compound 0.253 µM) was 0.258. It also gave a relative viability ([2]; first compound 0.8 µM) of 0.275, a relative viability ([2]; first compound 2.53 µM) of 0.351 and a relative viability ([3]; first compound 0.08 µM) of 0.163. The relative viability ([3]; first compound 0.253 µM) was 0.179, the relative viability ([3]; first compound 0.8 µM) was 0.0897 and the relative viability ([3]; first compound 2.53 µM) was 0.147. The relative viability ([4]; first compound 0.08 µM) was 0.876, the relative viability ([4]; first compound 0.253 µM) was 0.892 and the relative viability ([4]; first compound 0.8 µM) was 0.877. It also gave a relative viability ([4]; first compound 2.53 µM) of 0.889, a relative viability ([5]; first compound 0.08 µM) of 0.251 and a relative viability ([5]; first compound 0.253 µM) of 0.286. For the same compound, the relative viability ([5]; first compound 0.8 µM) was 0.27, the relative viability ([5]; first compound 2.53 µM) was 0.274 and the relative viability ([6]; first compound 0.08 µM) was 0.366. For the same compound, the relative viability ([6]; first compound 0.253 µM) was 0.357, the relative viability ([6]; first compound 0.8 µM) was 0.369 and the relative viability ([6]; first compound 2.53 µM) was 0.408. For the same compound, the relative viability ([7]; first compound 0.08 µM) was 0.169, the relative viability ([7]; first compound 0.253 µM) was 0.177 and the relative viability ([7]; first compound 0.8 µM) was 0.14. For the same compound, the relative viability ([7]; first compound 2.53 µM) was 0.198, the relative viability ([8]; first compound 0.08 µM) was 1.01 and the relative viability ([8]; first compound 0.253 µM) was 0.801. It also gave a relative viability ([8]; first compound 0.8 µM) of 0.81, a relative viability ([8]; first compound 2.53 µM) of 0.901 and a relative viability ([9]; first compound 0.08 µM) of 0.594. The relative viability ([9]; first compound 0.253 µM) was 0.581, the relative viability ([9]; first compound 0.8 µM) was 0.578 and the relative viability ([9]; first compound 2.53 µM) was 0.539. For the same compound, the relative viability ([10]; first compound 0.08 µM) was 0.44, the relative viability ([10]; first compound 0.253 µM) was 0.453 and the relative viability ([10]; first compound 0.8 µM) was 0.383. The relative viability ([10]; first compound 2.53 µM) was 0.455, the relative viability ([11]; first compound 0.08 µM) was 0.942 and the relative viability ([11]; first compound 0.253 µM) was 0.785. The relative viability ([11]; first compound 0.8 µM) was 0.799, the relative viability ([11]; first compound 2.53 µM) was 1.08 and the relative viability ([12]; first compound 0.08 µM) was 0.769. For the same compound, the relative viability ([12]; first compound 0.253 µM) was 0.584, the relative viability ([12]; first compound 0.8 µM) was 0.61 and the relative viability ([12]; first compound 2.53 µM) was 0.732. It also gave a relative viability ([13]; first compound 0.08 µM) of 0.677, a relative viability ([13]; first compound 0.253 µM) of 0.666 and a relative viability ([13]; first compound 0.8 µM) of 0.536. For the same compound, the relative viability ([13]; first compound 2.53 µM) was 0.746, the relative viability ([14]; first compound 0.08 µM) was 0.264 and the relative viability ([14]; first compound 0.253 µM) was 0.256. For the same compound, the relative viability ([14]; first compound 0.8 µM) was 0.445, the relative viability ([14]; first compound 2.53 µM) was 0.248 and the relative viability ([15]; first compound 0.08 µM) was 0.323. It also gave a relative viability ([15]; first compound 0.253 µM) of 0.33, a relative viability ([15]; first compound 0.8 µM) of 0.291 and a relative viability ([15]; first compound 2.53 µM) of 0.346. The relative viability ([16]; first compound 0.08 µM) was 1.15, the relative viability ([16]; first compound 0.253 µM) was 0.975 and the relative viability ([16]; first compound 0.8 µM) was 1.06. The relative viability ([16]; first compound 2.53 µM) was 1.21, the relative viability ([17]; first compound 0.08 µM) was 0.204 and the relative viability ([17]; first compound 0.253 µM) was 0.199. The relative viability ([17]; first compound 0.8 µM) was 0.308, the relative viability ([17]; first compound 2.53 µM) was 0.219 and the relative viability ([18]; first compound 0.08 µM) was 0.0594. It also gave a relative viability ([18]; first compound 0.253 µM) of 0.0676, a relative viability ([18]; first compound 0.8 µM) of 0.0545 and a relative viability ([18]; first compound 2.53 µM) of 0.0682. For the same compound, the relative viability ([19]; first compound 0.08 µM) was 1.51, the relative viability ([19]; first compound 0.253 µM) was 0.972 and the relative viability ([19]; first compound 0.8 µM) was 1.01. It also gave a relative viability ([19]; first compound 2.53 µM) of 1.27, a relative viability ([20]; first compound 0.08 µM) of 0.5 and a relative viability ([20]; first compound 0.253 µM) of 0.464. For the same compound, the relative viability ([20]; first compound 0.8 µM) was 0.438, the relative viability ([20]; first compound 2.53 µM) was 0.481 and the relative viability ([21]; first compound 0.08 µM) was 0.671. For the same compound, the relative viability ([21]; first compound 0.253 µM) was 0.727, the relative viability ([21]; first compound 0.8 µM) was 0.742 and the relative viability ([21]; first compound 2.53 µM) was 0.859.
In the case of `COc1nc(C)cnc1NS(=O)(=O)c1cccnc1-c1ccc(-c2nnco2)cc1` [Zibotentan] + CC(=O)Nc1cccc(-n2c(=O)n(C3CC3)c(=O)c3c(Nc4ccc(I)cc4F)n(C)c(=O)c(C)c32)c1 [Trametinib] (partner 0.02 µM), the relative viability ([1]; first compound 0.08 µM) is reported as 0.34, the relative viability ([1]; first compound 0.253 µM) is reported as 0.303 and the relative viability ([1]; first compound 0.8 µM) is reported as 0.349. For the same compound, the relative viability ([1]; first compound 2.53 µM) was 0.337, the relative viability ([2]; first compound 0.08 µM) was 0.886 and the relative viability ([2]; first compound 0.253 µM) was 0.899. The relative viability ([2]; first compound 0.8 µM) was 0.888, the relative viability ([2]; first compound 2.53 µM) was 0.886 and the relative viability ([3]; first compound 0.08 µM) was 0.378. It also gave a relative viability ([3]; first compound 0.253 µM) of 0.318, a relative viability ([3]; first compound 0.8 µM) of 0.361 and a relative viability ([3]; first compound 2.53 µM) of 0.383. It also gave a relative viability ([4]; first compound 0.08 µM) of 0.825, a relative viability ([4]; first compound 0.253 µM) of 0.569 and a relative viability ([4]; first compound 0.8 µM) of 0.665. The relative viability ([4]; first compound 2.53 µM) was 0.652, the relative viability ([5]; first compound 0.08 µM) was 0.928 and the relative viability ([5]; first compound 0.253 µM) was 0.858. For the same compound, the relative viability ([5]; first compound 0.8 µM) was 0.913, the relative viability ([5]; first compound 2.53 µM) was 0.935 and the relative viability ([6]; first compound 0.08 µM) was 0.777. For the same compound, the relative viability ([6]; first compound 0.253 µM) was 0.814, the relative viability ([6]; first compound 0.8 µM) was 0.817 and the relative viability ([6]; first compound 2.53 µM) was 0.816. For the same compound, the relative viability ([7]; first compound 0.08 µM) was 0.598, the relative viability ([7]; first compound 0.253 µM) was 0.547 and the relative viability ([7]; first compound 0.8 µM) was 0.537. It also gave a relative viability ([7]; first compound 2.53 µM) of 0.585, a relative viability ([8]; first compound 0.08 µM) of 1.05 and a relative viability ([8]; first compound 0.253 µM) of 0.947. The relative viability ([8]; first compound 0.8 µM) was 1.07, the relative viability ([8]; first compound 2.53 µM) was 1.07 and the relative viability ([9]; first compound 0.08 µM) was 0.907. It also gave a relative viability ([9]; first compound 0.253 µM) of 0.794, a relative viability ([9]; first compound 0.8 µM) of 0.832 and a relative viability ([9]; first compound 2.53 µM) of 0.803. The relative viability ([10]; first compound 0.08 µM) was 0.737, the relative viability ([10]; first compound 0.253 µM) was 0.745 and the relative viability ([10]; first compound 0.8 µM) was 0.797. The relative viability ([10]; first compound 2.53 µM) was 0.792, the relative viability ([11]; first compound 0.08 µM) was 0.42 and the relative viability ([11]; first compound 0.253 µM) was 0.477. It also gave a relative viability ([11]; first compound 0.8 µM) of 0.424, a relative viability ([11]; first compound 2.53 µM) of 0.47 and a relative viability ([12]; first compound 0.08 µM) of 0.461. It also gave a relative viability ([12]; first compound 0.253 µM) of 0.383, a relative viability ([12]; first compound 0.8 µM) of 0.399 and a relative viability ([12]; first compound 2.53 µM) of 0.437. The relative viability ([13]; first compound 0.08 µM) was 0.192, the relative viability ([13]; first compound 0.253 µM) was 0.146 and the relative viability ([13]; first compound 0.8 µM) was 0.246. It also gave a relative viability ([13]; first compound 2.53 µM) of 0.208, a relative viability ([14]; first compound 0.08 µM) of 0.966 and a relative viability ([14]; first compound 0.253 µM) of 0.897. It also gave a relative viability ([14]; first compound 0.8 µM) of 0.903, a relative viability ([14]; first compound 2.53 µM) of 0.908 and a relative viability ([15]; first compound 0.08 µM) of 0.398. For the same compound, the relative viability ([15]; first compound 0.253 µM) was 0.62, the relative viability ([15]; first compound 0.8 µM) was 0.572 and the relative viability ([15]; first compound 2.53 µM) was 0.49. For the same compound, the relative viability ([16]; first compound 0.08 µM) was 0.67, the relative viability ([16]; first compound 0.253 µM) was 0.599 and the relative viability ([16]; first compound 0.8 µM) was 0.648. It also gave a relative viability ([16]; first compound 2.53 µM) of 0.657, a relative viability ([17]; first compound 0.08 µM) of 0.234 and a relative viability ([17]; first compound 0.253 µM) of 0.211. It also gave a relative viability ([17]; first compound 0.8 µM) of 0.218, a relative viability ([17]; first compound 2.53 µM) of 0.219 and a relative viability ([18]; first compound 0.08 µM) of 0.159. The relative viability ([18]; first compound 0.253 µM) was 0.0304, the relative viability ([18]; first compound 0.8 µM) was 0.0981 and the relative viability ([18]; first compound 2.53 µM) was 0.196. It also gave a relative viability ([19]; first compound 0.08 µM) of 0.628, a relative viability ([19]; first compound 0.253 µM) of 0.508 and a relative viability ([19]; first compound 0.8 µM) of 0.723. For the same compound, the relative viability ([19]; first compound 2.53 µM) was 0.715, the relative viability ([20]; first compound 0.08 µM) was 0.96 and the relative viability ([20]; first compound 0.253 µM) was 0.842. It also gave a relative viability ([20]; first compound 0.8 µM) of 0.804, a relative viability ([20]; first compound 2.53 µM) of 0.888 and a relative viability ([21]; first compound 0.08 µM) of 0.617. For the same compound, the relative viability ([21]; first compound 0.253 µM) was 0.665, the relative viability ([21]; first compound 0.8 µM) was 0.741 and the relative viability ([21]; first compound 2.53 µM) was 0.779.
